Data: US8192962B2, “Processes for detecting toxic substances” (Daikin Industries, Ltd., priority 2001, dated 2012)

Tested on: Unknown protein yeast genes
Assay: DNA chip mRNA expression in yeast, unknown protein yeast genes (Table 1)
Type: cell-based, Saccharomyces cerevisiae S288C
Protocol: Yeast (Saccharomyces cerevisiae S288C (α SUC2mal mel gap2 CUP1)) were incubated at 25° C. on YPD medium (yeast extract 1%, polypepton 2%, glucose 2%). One of toxic chemical substances was added to the cells at logarithmic growth phase, and the cells were further incubated for two hours. Cells were cultured without any chemical substance in the same condition, and were used as control. Concentrations of the chemical substances were defined to inhibit the growth of the yeast but not lead to death.
After completion of the incubation, the culture was centrifuged to collect the cells. To the cells, sodium acetate buffer (50 mM sodium acetate, 10 mM EDTA, 1% SDS) was added, and the mixture was shaken at 65° C. for five minutes, followed by returning to room temperature, and obtaining the supernatant, of which the procedures were repeated two times. To the supernatant, ½ amount of a solution of phenol/chloroform was added, and the mixture was centrifuged to give a supernatant, which was added with an equal amount of chloroform, and the mixture was centrifuged to give a supernatant. To the supernatant, an equal amount of isopropanol containing 0.3 M sodium acetate was added, and the mixture was allowed to stand at room temperature for 30 minutes, after which the mixture was centrifuged to give a sediment of the whole RNAs. Seventy % ethanol was added to the sediment, and the mixture was again centrifuged to give a sediment, which was then dried and dissolved in water. mRNA was isolated from the whole RNAs as followings. In view of the fact that a poly A chain is attached to the 3′ terminus of mRNA, a polynucleotide having a poly T structure which was immobilized on the surface of latex beads was used to trap the mRNA, and then the mRNA was washed and eluted with spine column (Oligotex-dT30<Super>mRNA Purification Kit, Takara). Reverse transcription of the mRNA was conducted with a reverse transcriptase (Super Script II Reverse Transcriptase; catalogue No. 18064-014, GibcoBRL) using fluorescence-labeled nucleotides to give cDNAs that were introduced with Cy3-dUTP or Cy5-dUTP during the reverse transcription.
The labeled cDNAs were dissolved in TE buffer (10mM Tris-HCl/1 mM EDTA, pH8.0), and the solution was dropped on the DNA chip containing the whole genes of yeast (DNA Chip Research Inc. Japan) so that the cDNAs were hybridized on the DNA chip at 65° C. for over 12 hours. The fluoresces intensity of the DNA chip was read with a scanner, and the ratio relative to the fluorescence intensity resulting from the absence of chemical substance was estimated as the following, which is shown in Tables 1 to 9: […]

SMILES: C[S+](C)[O-] [(15), dimethylsulfoxide]
- The level of expressed mRNA in the presence of chemical substance/The level of expressed mRNA in the absence of chemical substance (yeast gene YLR008C): 0.7
- The level of expressed mRNA in the presence of chemical substance/The level of expressed mRNA in the absence of chemical substance (yeast gene YLR226W): 1.3
- The level of expressed mRNA in the presence of chemical substance/The level of expressed mRNA in the absence of chemical substance (yeast gene YLR297W): 0.7
- The level of expressed mRNA in the presence of chemical substance/The level of expressed mRNA in the absence of chemical substance (yeast gene YLR311C, incubated two hours with substance): 0.5
- The level of expressed mRNA in the presence of chemical substance/The level of expressed mRNA in the absence of chemical substance (yeast gene YLR346C): 1.0
- The level of expressed mRNA in the presence of chemical substance/The level of expressed mRNA in the absence of chemical substance (yeast gene YLR392C): 0.5
- The level of expressed mRNA in the presence of chemical substance/The level of expressed mRNA in the absence of chemical substance (yeast gene YLR415C): 1.0
- The level of expressed mRNA in the presence of chemical substance/The level of expressed mRNA in the absence of chemical substance (yeast gene YLR427W): 0.8
- The level of expressed mRNA in the presence of chemical substance/The level of expressed mRNA in the absence of chemical substance (yeast gene YLR460C): 0.7
- The level of expressed mRNA in the presence of chemical substance/The level of expressed mRNA in the absence of chemical substance (yeast gene YML013W): 2.2
- The level of expressed mRNA in the presence of chemical substance/The level of expressed mRNA in the absence of chemical substance (yeast gene YML029W): 0.8
- The level of expressed mRNA in the presence of chemical substance/The level of expressed mRNA in the absence of chemical substance (yeast gene YML041C): 1.0
- The level of expressed mRNA in the presence of chemical substance/The level of expressed mRNA in the absence of chemical substance (yeast gene YML079W): 0.3
- The level of expressed mRNA in the presence of chemical substance/The level of expressed mRNA in the absence of chemical substance (yeast gene YMR041C, incubated two hours with substance): 0.5
- The level of expressed mRNA in the presence of chemical substance/The level of expressed mRNA in the absence of chemical substance (yeast gene YMR068W): 2.2
- The level of expressed mRNA in the presence of chemical substance/The level of expressed mRNA in the absence of chemical substance (yeast gene YMR090W): 1.9
- The level of expressed mRNA in the presence of chemical substance/The level of expressed mRNA in the absence of chemical substance (yeast gene YMR160W): 1.5
- The level of expressed mRNA in the presence of chemical substance/The level of expressed mRNA in the absence of chemical substance (yeast gene YMR315W): 2.5
- The level of expressed mRNA in the presence of chemical substance/The level of expressed mRNA in the absence of chemical substance (yeast gene YNL026W): 0.8
- The level of expressed mRNA in the presence of chemical substance/The level of expressed mRNA in the absence of chemical substance (yeast gene YNL058C): 2.2
- The level of expressed mRNA in the presence of chemical substance/The level of expressed mRNA in the absence of chemical substance (yeast gene YNL063W): 0.7
- The level of expressed mRNA in the presence of chemical substance/The level of expressed mRNA in the absence of chemical substance (yeast gene YNL176C): 0.8
- The level of expressed mRNA in the presence of chemical substance/The level of expressed mRNA in the absence of chemical substance (yeast gene YNL194C): 0.5
- The level of expressed mRNA in the presence of chemical substance/The level of expressed mRNA in the absence of chemical substance (yeast gene YNL200C): 0.8
- The level of expressed mRNA in the presence of chemical substance/The level of expressed mRNA in the absence of chemical substance (yeast gene YNL211C): 0.8
- The level of expressed mRNA in the presence of chemical substance/The level of expressed mRNA in the absence of chemical substance (yeast gene YNL253W): 0.5
- The level of expressed mRNA in the presence of chemical substance/The level of expressed mRNA in the absence of chemical substance (yeast gene YNR051C): 1.2
- The level of expressed mRNA in the presence of chemical substance/The level of expressed mRNA in the absence of chemical substance (yeast gene YOL026C): 0.9
- The level of expressed mRNA in the presence of chemical substance/The level of expressed mRNA in the absence of chemical substance (yeast gene YOL031C): 4.4
- The level of expressed mRNA in the presence of chemical substance/The level of expressed mRNA in the absence of chemical substance (yeast gene YOL101C): 0.6
- The level of expressed mRNA in the presence of chemical substance/The level of expressed mRNA in the absence of chemical substance (yeast gene YOL150C): 1.8
- The level of expressed mRNA in the presence of chemical substance/The level of expressed mRNA in the absence of chemical substance (yeast gene YOR022C): 0.8
- The level of expressed mRNA in the presence of chemical substance/The level of expressed mRNA in the absence of chemical substance (yeast gene YOR049C): 1.3
- The level of expressed mRNA in the presence of chemical substance/The level of expressed mRNA in the absence of chemical substance (yeast gene YOR087W): 0.8
- The level of expressed mRNA in the presence of chemical substance/The level of expressed mRNA in the absence of chemical substance (yeast gene YOR138C): 1.0
- The level of expressed mRNA in the presence of chemical substance/The level of expressed mRNA in the absence of chemical substance (yeast gene YOR248W, incubated two hours with chemical substance): 8.8
- The level of expressed mRNA in the presence of chemical substance/The level of expressed mRNA in the absence of chemical substance (yeast gene YOR253W): 1.1
- The level of expressed mRNA in the presence of chemical substance/The level of expressed mRNA in the absence of chemical substance (yeast gene YOR267C): 1.3
- The level of expressed mRNA in the presence of chemical substance/The level of expressed mRNA in the absence of chemical substance (yeast gene YOR338W): 1.8
- The level of expressed mRNA in the presence of chemical substance/The level of expressed mRNA in the absence of chemical substance (yeast gene YPL005W): 1.2
- The level of expressed mRNA in the presence of chemical substance/The level of expressed mRNA in the absence of chemical substance (yeast gene YPL150W): 1.1
- The level of expressed mRNA in the presence of chemical substance/The level of expressed mRNA in the absence of chemical substance (yeast gene YPL152W): 2.3
- The level of expressed mRNA in the presence of chemical substance/The level of expressed mRNA in the absence of chemical substance (yeast gene YPL168W): 0.8
- The level of expressed mRNA in the presence of chemical substance/The level of expressed mRNA in the absence of chemical substance (yeast gene YPL180W): 0.7
- The level of expressed mRNA in the presence of chemical substance/The level of expressed mRNA in the absence of chemical substance (yeast gene YPL188W): 0.8
- The level of expressed mRNA in the presence of chemical substance/The level of expressed mRNA in the absence of chemical substance (yeast gene YPL221W): 1.0
- The level of expressed mRNA in the presence of chemical substance/The level of expressed mRNA in the absence of chemical substance (yeast gene YPL280W): 4.3
- The level of expressed mRNA in the presence of chemical substance/The level of expressed mRNA in the absence of chemical substance (yeast gene YPR049C): 1.5
- The level of expressed mRNA in the presence of chemical substance/The level of expressed mRNA in the absence of chemical substance (yeast gene YPR077C, cells incubated two hours with the chemical substance): 2.9
- The level of expressed mRNA in the presence of chemical substance/The level of expressed mRNA in the absence of chemical substance (yeast gene YPR148C): 1.7
- The level of expressed mRNA in the presence of chemical substance/The level of expressed mRNA in the absence of chemical substance (yeast gene YPR172W): 1.5
